According to ChEMBL document CHEMBL1201862, “PubChem BioAssay data set” (2004):
Where a name gives a salt, the structure may show the parent alone.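 Briefly, cells in 96-well plates were exposed to five compound concentrations for 48 h, and endpoints were estimated by linear interpolation. The concentration for 50% growth inhibition is given as GI50.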 The source made the active and inactive calls. Cut-off read from the data, not from the text of the source: active = GI50 up to about 1.1 µM and inactive = higher. Residues, ends and D or L forms follow the SMILES beside them. *: point of attachment. Boc = CC(C)(C)OC(=O)*

Legend:
Assay in all cases: inhibition of tumour cell growth, NCI panel, 48 h
A498 = test system: A498
CAKI-1 = test system: CAKI-1
COLO 205 = test system: COLO 205
HCT-116 = test system: HCT-116
HOP-62 = test system: HOP-62
HT-29 = test system: HT-29
M14 = test system: M14
Malme-3M = test system: Malme-3M
NCI-H23 = test system: NCI-H23
OVCAR-3 = test system: OVCAR-3
PC-3 = test system: PC-3
SF-268 = test system: SF-268
SK-MEL-28 = test system: SK-MEL-28
SK-MEL-5 = test system: SK-MEL-5
SNB-19 = test system: SNB-19
TK-10 = test system: TK-10
U-251 = test system: U-251
K562 = test system: K562
NCI-H522 = test system: NCI-H522
OVCAR-4 = test system: OVCAR-4

Measured: GI50

N/C(=N\OC(=O)NC(Cl)=C(Cl)Cl)c1cc(C(F)(F)F)cc(C(F)(F)F)c1
inactive: A498 17.5 µM | CAKI-1 16.7 µM | COLO 205 15.7 µM | HCT-116 18.6 µM | HOP-62 17.9 µM | HT-29 16.9 µM | M14 25.2 µM | Malme-3M 23.9 µM | NCI-H23 34.9 µM | OVCAR-3 14.8 µM | PC-3 17.5 µM | SF-268 18.7 µM | SK-MEL-28 17.4 µM | SK-MEL-5 26.8 µM | SNB-19 18.7 µM | TK-10 16.5 µM | U-251 16 µM

CC(=O)c1c2c(cc3c1CC1(Cc4cc5c(cc4C1)CCCC5)C3)CCCC2
inactive: A498 56.6 µM | COLO 205 77.1 µM | HCT-116 > 100 µM | HOP-62 > 100 µM | HT-29 50.9 µM | K562 9.66 µM | M14 > 100 µM | Malme-3M 94.8 µM | NCI-H23 68.5 µM | NCI-H522 20.9 µM | OVCAR-3 27.2 µM | OVCAR-4 8.39 µM | PC-3 51.4 µM | SK-MEL-5 10.3 µM | TK-10 > 100 µM | U-251 > 100 µM

O=C(O)C1C2C=CC(C2)C1c1ccccc1 (configuration not stated)
inactive: A498 > 100 µM | CAKI-1 > 100 µM | COLO 205 > 100 µM | HCT-116 > 100 µM | HOP-62 > 100 µM | HT-29 > 100 µM | K562 > 100 µM | M14 > 100 µM | Malme-3M > 100 µM | NCI-H23 > 100 µM | OVCAR-3 > 100 µM | PC-3 > 100 µM | SF-268 > 100 µM | SK-MEL-28 > 100 µM | SK-MEL-5 > 100 µM | SNB-19 > 100 µM | TK-10 > 100 µM | U-251 > 100 µM

COC1(OC)N=C(N)C2(C#N)C(C)CC(=O)N(N(C)C)C12C#N (configuration not stated)
inactive: A498 > 100 µM | CAKI-1 > 100 µM | COLO 205 > 100 µM | HCT-116 > 100 µM | HOP-62 > 100 µM | HT-29 > 100 µM | K562 > 100 µM | M14 > 100 µM | Malme-3M > 100 µM | NCI-H23 > 100 µM | NCI-H522 > 100 µM | PC-3 > 100 µM | SF-268 > 100 µM | SK-MEL-28 > 100 µM | SK-MEL-5 > 100 µM | SNB-19 > 100 µM | TK-10 > 100 µM | U-251 > 100 µM

CCC(C)[C@H](NC(=O)[C@H](Cc1ccccc1)NC(=O)N(CC)c1ccccc1)C(=O)N[C@@H](CC(C)C)C(=O)OC (some centres not stated)
inactive: A498 > 100 µM | CAKI-1 58.5 µM | COLO 205 60.1 µM | HCT-116 32.4 µM | HOP-62 33 µM | M14 37.6 µM | Malme-3M 31 µM | NCI-H23 31 µM | OVCAR-3 24.8 µM | OVCAR-4 94.4 µM | PC-3 35.3 µM | SF-268 36.5 µM | SK-MEL-28 40.3 µM | SK-MEL-5 26.7 µM | SNB-19 35.4 µM | TK-10 37.9 µM | U-251 38.5 µM

CN(C)c1ccc(/C=c2/c3ccccc3n3nc4ccccc4c23)cc1
inactive: A498 4.3 µM | CAKI-1 28.7 µM | COLO 205 9.64 µM | HCT-116 16.8 µM | HOP-62 49.4 µM | HT-29 13.7 µM | K562 9.53 µM | M14 21.7 µM | Malme-3M > 100 µM | NCI-H23 95.7 µM | NCI-H522 5.71 µM | OVCAR-3 28.2 µM | PC-3 8.04 µM | SF-268 36.3 µM | SK-MEL-28 34.9 µM | SK-MEL-5 8.73 µM | SNB-19 76.9 µM | TK-10 > 100 µM | U-251 22.6 µM

Cn1ccnc1Oc1ccc(Cl)cc1
inactive: A498 16.9 µM | COLO 205 13 µM | HCT-116 12 µM | HOP-62 26.2 µM | HT-29 13.7 µM | K562 13.7 µM | M14 13.7 µM | Malme-3M 2.28 µM | NCI-H23 17.5 µM | NCI-H522 2.28 µM | OVCAR-4 6.12 µM | PC-3 14.3 µM | SF-268 28.5 µM | SK-MEL-28 14.4 µM | SK-MEL-5 14.1 µM | SNB-19 33 µM | TK-10 18.7 µM | U-251 17.9 µM

Cc1oc2c(cc(O)c3cc(O)ccc32)c2cccc1-2
inactive: A498 > 100 µM | CAKI-1 > 100 µM | COLO 205 > 100 µM | HCT-116 > 100 µM | HOP-62 > 100 µM | HT-29 > 100 µM | K562 > 100 µM | M14 > 100 µM | Malme-3M > 100 µM | NCI-H23 > 100 µM | NCI-H522 35.2 µM | OVCAR-3 > 100 µM | PC-3 > 100 µM | SF-268 > 100 µM | SK-MEL-28 > 100 µM | SK-MEL-5 > 100 µM | SNB-19 > 100 µM | TK-10 > 100 µM | U-251 > 100 µM

O=c1[nH]nc(Cc2ccc(Cl)cc2)n1Nc1ccccc1
inactive: A498 > 100 µM | CAKI-1 > 100 µM | COLO 205 > 100 µM | HCT-116 > 100 µM | HOP-62 79.6 µM | HT-29 > 100 µM | K562 > 100 µM | M14 > 100 µM | Malme-3M > 100 µM | NCI-H23 > 100 µM | OVCAR-3 > 100 µM | OVCAR-4 > 100 µM | PC-3 > 100 µM | SK-MEL-28 > 100 µM | SK-MEL-5 > 100 µM | SNB-19 > 100 µM | TK-10 > 100 µM | U-251 > 100 µM

COc1ccc([S+]([O-])Cc2cc(OC)c(OC)c(OC)c2)cc1 (configuration not stated)
inactive: CAKI-1 56.9 µM | COLO 205 52.8 µM | HCT-116 40.4 µM | HOP-62 45.5 µM | HT-29 31.3 µM | K562 14.7 µM | M14 35.2 µM | Malme-3M 58.3 µM | NCI-H23 76.2 µM | NCI-H522 51.3 µM | OVCAR-3 57.8 µM | OVCAR-4 > 100 µM | PC-3 > 100 µM | SF-268 97.5 µM | SK-MEL-28 95.3 µM | SK-MEL-5 29.6 µM | SNB-19 69.7 µM | TK-10 > 100 µM | U-251 60.3 µM

Nc1nc(O)nc2snnc12
inactive: CAKI-1 1.77 µM | COLO 205 > 100 µM | HCT-116 7.89 µM | HOP-62 8.07 µM | HT-29 > 100 µM | K562 7.26 µM | M14 7.35 µM | Malme-3M 8.65 µM | NCI-H23 > 100 µM | NCI-H522 > 100 µM | OVCAR-3 > 100 µM | OVCAR-4 > 53.7 µM | PC-3 > 100 µM | SF-268 5.04 µM | SK-MEL-28 6.27 µM | SK-MEL-5 > 74.3 µM | SNB-19 > 87.9 µM | TK-10 > 22.4 µM | U-251 25.1 µM

COc1cc2c(cc1OC)C(=O)/C(=C/c1ccc(Cl)cc1)CC2
inactive: A498 > 10 µM | CAKI-1 > 10 µM | COLO 205 > 10 µM | HCT-116 > 10 µM | HOP-62 > 10 µM | HT-29 > 10 µM | K562 > 10 µM | M14 > 10 µM | Malme-3M > 10 µM | NCI-H23 > 10 µM | OVCAR-3 > 10 µM | OVCAR-4 > 10 µM | PC-3 > 10 µM | SF-268 > 10 µM | SK-MEL-28 > 10 µM | SK-MEL-5 > 10 µM | SNB-19 > 10 µM | TK-10 > 10 µM | U-251 > 10 µM

COC(=O)C(Cc1c[nH]c2ccccc12)NC(=O)C(Cc1c[nH]c2ccccc12)NC(=O)C(Cc1c[nH]c2ccccc12)NC(=O)C(Cc1c[nH]c2ccccc12)NC(=O)C(Cc1c[nH]c2ccccc12)NC(=O)C(Cc1c[nH]c2ccccc12)NC(=O)OC(C)(C)C (configuration not stated) (Boc-WWWWWW-OMe; configuration not given here)
inactive: CAKI-1 > 100 µM | HCT-116 37.3 µM | HOP-62 > 100 µM | HT-29 > 100 µM | K562 > 100 µM | M14 > 10 µM | Malme-3M 69.5 µM | NCI-H23 28.5 µM | NCI-H522 28.1 µM | OVCAR-3 > 100 µM | OVCAR-4 > 100 µM | PC-3 52.5 µM | SF-268 50.4 µM | SK-MEL-28 14.4 µM | SK-MEL-5 19.3 µM | SNB-19 47.3 µM | TK-10 31.2 µM | U-251 54.7 µM

COc1cc2cc3c4cc(OC)c(OC)cc4cc[n+]3c(C)c2cc1OC [CORALYNE]
inactive: A498 6.05 µM | CAKI-1 67.1 µM | COLO 205 47.3 µM | HCT-116 > 100 µM | HT-29 77.4 µM | K562 91.4 µM | Malme-3M 60.1 µM | NCI-H23 > 100 µM | NCI-H522 40 µM | OVCAR-3 > 100 µM | OVCAR-4 67.5 µM | PC-3 > 100 µM | SF-268 1.96 µM | SK-MEL-28 > 100 µM | SK-MEL-5 72.1 µM | SNB-19 13.4 µM | TK-10 > 100 µM | U-251 9.59 µM

CN[C@@H](C)[C@@H](O)c1ccccc1 [PSEUDOEPHEDRINE HYDROCHLORIDE]
inactive: CAKI-1 > 100 µM | COLO 205 > 100 µM | HCT-116 > 100 µM | HOP-62 > 100 µM | HT-29 > 100 µM | K562 > 100 µM | M14 > 100 µM | Malme-3M > 100 µM | NCI-H23 > 100 µM | NCI-H522 > 10 µM | OVCAR-3 > 10 µM | OVCAR-4 > 100 µM | PC-3 > 100 µM | SF-268 > 100 µM | SK-MEL-28 > 100 µM | SK-MEL-5 > 100 µM | SNB-19 > 100 µM | TK-10 > 100 µM | U-251 > 100 µM
